Laboratory results as given in ChEMBL document CHEMBL3785025, “Focus on PAINS: false friends in the quest for selective anti-protozoal lead structures from Nature?” (Medchemcomm, 2016).
Values after ≈ are worked out from the molar mass of the structure shown. One block for each compound: values may come before it.

Key:
Leishmania infantum = assay: Antileishmanial activity against Leishmania infantum MCAN/IR/07/Moheb-gh assessed as cell viability after 72 hrs by MTT assay; format: functional, organism-based
[1] = Cmax in Wistar rat at 50 mg/kg administered as lipid nanoparticle suspension after 2 hrs by UPLC method; format: ADME, organism-based; set-up: dose 50 mg/kg; details: in vivo
Leishmania tropica = assay: Antileishmanial activity against Leishmania tropica MHOM/IR/2002/Mash2 assessed as cell viability after 72 hrs by MTT assay; format: functional, organism-based; details: MHOM/IR/2002/Mash2, 72 h
[2] = Cmax in Wistar rat at 50 mg/kg after 2 hrs by UPLC method; format: ADME, organism-based; set-up: dose 50 mg/kg; details: in vivo
Plasmodium falciparum [3] = assay: Antiplasmodial activity against chloroquine-resistant Plasmodium falciparum FcB1/Colombia after 24 hrs by [3H]hypoxanthine incorporation assay; format: functional, organism-based
Leishmania donovani [4] = assay: Antileishmanial activity against Leishmania donovani MHOM/ET/67/HU3 after 5 days by Giemsa staining based microscopic analysis; format: functional, organism-based; details: MHOM/ET/67/HU3, 120 h
[5] = test system: Trypanosoma brucei brucei; assay: Antitrypanosomal activity against Trypanosoma brucei brucei; format: functional, organism-based
Leishmania amazonensis [6] = assay: Antileishmanial activity against amastigote Leishmania amazonensis relative to control; format: functional
Leishmania amazonensis [7] = assay: Antileishmanial activity against amastigote Leishmania amazonensis; format: functional, organism-based
Leishmania donovani [8] = assay: Antileishmanial activity against Leishmania donovani MHOM/ET/67/L82 after 72 hrs by Alamar blue dye based fluorescence analysis; format: functional, organism-based; details: MHOM/ET/67/L82, 72 h
Arginase-1 = molecular target: T1, Arginase-1 (Rattus norvegicus, UniProt P07824); assay: Inhibition of recombinant rat liver arginase expressed without histidine tail assessed as urea formation using L-arginine as substrate after 15 mins by Berthelot assay
T1 sequence (P07824 whole entry): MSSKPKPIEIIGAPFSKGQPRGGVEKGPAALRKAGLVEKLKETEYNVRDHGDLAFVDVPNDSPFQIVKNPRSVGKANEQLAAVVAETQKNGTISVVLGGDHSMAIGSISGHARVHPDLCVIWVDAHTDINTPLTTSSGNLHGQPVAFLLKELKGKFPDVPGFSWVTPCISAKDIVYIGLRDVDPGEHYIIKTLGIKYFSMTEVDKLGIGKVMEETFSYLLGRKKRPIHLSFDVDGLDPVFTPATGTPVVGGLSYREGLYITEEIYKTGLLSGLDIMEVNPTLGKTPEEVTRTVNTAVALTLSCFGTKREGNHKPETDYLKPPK

Trypanosoma cruzi [9] = assay: Antitrypanosomal activity against trypomastigote forms of Trypanosoma cruzi Tulahuen C2C4 infected in rat L6 cells after 96 hrs by photometric method; format: functional, organism-based; details: Tulahuen C2C4, L6, 96 h
L6 = assay: Cytotoxicity against rat L6 cells after 72 hrs by alamar blue staining based fluorescence analysis; format: functional, cell-based; details: L6, 72 h
[10] = test system: Trypanosoma brucei rhodesiense; assay: Antitrypanosomal activity against Trypanosoma brucei rhodesiense STIB 900 after 72 hrs by alamar blue staining based fluorescence analysis; format: functional, organism-based; details: STIB 900, 72 h
Leishmania major [11] = assay: Antileishmanial activity against promastigote Leishmania major MHOM/IL/67/LRC-L137 assessed as growth inhibition after 2 hrs by [3H]-thymidine incorporation assay; format: functional, organism-based
Leishmania donovani [12] = assay: Antileishmanial activity against […] Leishmania donovani MHOM/KE/85/NLB439 in human peripheral blood monocyte derived macrophages assessed as growth inhibition after 24 hrs by [3H]-thymidine incorporation assay; format: functional, organism-based
Plasmodium falciparum [13] = assay: Antimalarial activity against chloroquine-sensitive Plasmodium falciparum 3D7 after 48 hrs by ethidium bromide staining based fluorometric method; format: functional, organism-based; details: 3D7, 48 h
[14] = Cytotoxicity against human U937 cells after 72 hrs by MTT assay; format: functional; details: U-937, 72 h, read-out: LD50 (the source's name)
Trypanosoma cruzi [15] = assay: Antitrypanosomal activity against trypomastigote forms of Trypanosoma cruzi Tulahuen C2C4 infected in rat L6 cells assessed as inhibition of growth after 96 hrs by inverted microscopy; format: functional, organism-based; details: Tulahuen C2C4, L6, 96 h
Plasmodium falciparum [16] = assay: Antimalarial activity against chloroquine and pyrimethamine-resistant Plasmodium falciparum K1 infected in human red blood cells after 48 hrs by [3H]hypoxanthine incorporation assay; format: functional, organism-based
Leishmania donovani [17] = assay: Antileishmanial activity against Leishmania donovani MHOM/ET/67/L82 after 72 hrs by resazurin dye based fluorescence analysis; format: functional, organism-based; details: MHOM/ET/67/L82, 72 h
Plasmodium falciparum [18] = assay: Antimalarial activity against chloroquine-sensitive Plasmodium falciparum 3D7 after 24 hrs by [3H]hypoxanthine labeling method; format: functional, organism-based
[19] = Cytotoxicity against mouse J774.1 cells; format: cell-based
Trypanosoma brucei = assay: Antitrypanosomal activity against Trypanosoma brucei; format: functional, organism-based
Leishmania major [20] = assay: Antileishmanial activity against Leishmania major promastigotes; format: functional; details: read-out: LD50 (the source's name)
Plasma = assay: Plasma concentration in human at […], administered orally by HPLC method in presence of 20 mg piperine; format: ADME, cell-free; details: po
[21] = Cytotoxicity against HEK293T cells; format: cell-based; details: Homo sapiens, HEK-293T

SMILES: CC1=CC(=O)C(C(C)C)=CC1=O [THYMOQUINONE]
IC50 (Leishmania infantum): 1.47 µg/mL (≈ 8.95 µM)
Cmax [1]: 900 ng/mL
IC50 (Leishmania tropica): 1.16 µg/mL (≈ 7.06 µM)
Cmax [2]: 400 ng/mL

SMILES: COc1ccc(CC[C@H](O)C[C@H](CCc2ccc(O)c(O)c2)O[C@@H]2O[C@H](CO)[C@@H](O)[C@H](O)[C@H]2O)cc1
IC50 (Plasmodium falciparum [3]): > 20 µM
IC50 (Leishmania donovani [4]): 30 µM
IC50 [5]: > 100 µM

IC50 (Leishmania amazonensis [7]): 0.78 µg/mL (≈ 1.68 µM)
SMILES: O=c1c(O[C@@H]2O[C@H](CO)[C@@H](O)[C@H](O)[C@H]2O)c(-c2ccc(O)c(O)c2)oc2cc(O)cc(O)c12 [ISOQUERCETIN]
Activity (Leishmania amazonensis [6]): 40%

SMILES: OC[C@H]1O[C@@H](O[C@@H](CCc2ccc(O)c(O)c2)C[C@@H](O)CCc2ccc(O)c(O)c2)[C@H](O)[C@@H](O)[C@@H]1O
IC50 (Plasmodium falciparum [3]): > 20 µM
IC50 (Leishmania donovani [4]): 30 µM
IC50 [5]: 25 µM

SMILES: O=c1cc(-c2ccc(O)c(O)c2)oc2cc(O)cc(O)c12 [LUTEOLIN]
IC50 (Leishmania donovani [8]): 0.8 µg/mL (≈ 2.79 µM)
IC50 (Arginase-1): 9 µM
IC50 (Trypanosoma cruzi [9]): 21.4 µg/mL (≈ 74.8 µM)
IC50 (L6): 9.4 µg/mL
IC50 [10]: 3.7 µg/mL

SMILES: O=c1c(O)c(-c2ccc(O)c(O)c2)oc2cc(O)cc(O)c12 [QUERCETIN]
IC50 (Leishmania donovani [8]): 1 µg/mL (≈ 3.31 µM)
IC50 (Trypanosoma cruzi [9]): > 30 µg/mL
IC50 [10]: 8.3 µg/mL

SMILES: C=CC(C)(C)c1cc(/C=C/C(=O)c2ccc(O)cc2)c(OC)cc1O [LICOAGROCHACONE A]
IC50 (Leishmania major [11]): 7.2 µM
IC50 (Leishmania donovani [12]): 0.9 µM

SMILES: CC(C)=CCc1c(O)c(O)c(O)c2c(=O)c3c(CC=C(C)C)c(O)c(O)cc3oc12
IC50 (Plasmodium falciparum [13]): 12.4 µM
CC50 [14]: 263 µM

SMILES: COc1ccc(CC[C@@H](C[C@H](CCc2ccc(O)c(O)c2)O[C@@H]2O[C@H](CO)[C@@H](O)[C@H](O)[C@H]2O)OC=O)cc1
IC50 (Plasmodium falciparum [3]): > 20 µM
IC50 (Leishmania donovani [4]): 30 µM
IC50 [5]: 25 µM

SMILES: C/C=C(\C)CO[C@@H]1CC([C@@H](O)[C@]2(C)C=C3OC(=O)C4=C3[C@H]2[C@H]2OC(=O)[C@H](C)[C@@H]2[C@H](OC/C(C)=C/C)C4)=C2C(=O)C=C(C)[C@@H]2[C@H]2OC(=O)[C@H](C)[C@@H]21
IC50 (Trypanosoma cruzi [15]): 30.3 µM
IC50 (Plasmodium falciparum [16]): 2 µM
IC50 (L6): 16.2 µM
IC50 (Leishmania donovani [17]): 10.2 µM
IC50 [10]: 6.2 µM

SMILES: COc1cc(/C=C/C(=O)CC(=O)/C=C/c2ccc(O)c(OC)c2)ccc1O [CURCUMIN]
IC50 (Plasmodium falciparum [18]): 25 µM
IC50 [19]: 31 µM
IC50 (Trypanosoma brucei): 3.6 µM
LC50 (Leishmania major [20]): 37.6 µM
Cp (Plasma): 180 ng/mL
IC50 [21]: 15.2 µM
LC50 ([5]; read-out: LD50 (the source's name)): 46.5 µM

SMILES: C[C@@H]1O[C@@H](Oc2c(-c3ccc(O)c(O)c3)oc3cc(O)cc(O)c3c2=O)[C@H](O)[C@H](O)[C@H]1O [QUERCITRIN]
IC50 (Leishmania donovani [8]): 17.7 µg/mL (≈ 39.5 µM)
IC50 (Trypanosoma cruzi [9]): > 30 µg/mL
IC50 (L6): > 90 µg/mL
IC50 [10]: 27.9 µg/mL

SMILES: O=CO[C@@H](CCc1ccc(O)c(O)c1)C[C@H](CCc1ccc(O)c(O)c1)O[C@@H]1O[C@H](CO)[C@@H](O)[C@H](O)[C@H]1O
IC50 (Plasmodium falciparum [3]): > 20 µM
IC50 (Leishmania donovani [4]): 30 µM
IC50 [5]: 25 µM

IC50 (Arginase-1): 1.4 µM
IC50 (Trypanosoma cruzi [9]): > 30 µg/mL
IC50 [10]: 3.3 µg/mL
SMILES: O=c1c(O)c(-c2ccc(O)c(O)c2)oc2cc(O)ccc12 [FISETIN]
IC50 (Leishmania donovani [8]): 0.6 µg/mL (≈ 2.1 µM)
IC50 (L6): 38.5 µg/mL

IC50 (Trypanosoma cruzi [9]): 21.8 µg/mL (≈ 80.7 µM)
IC50 [10]: 5.1 µg/mL
SMILES: O=c1cc(-c2ccc(O)cc2)oc2cc(O)cc(O)c12 [APIGENIN]
IC50 (Leishmania donovani [8]): 1.9 µg/mL (≈ 7.03 µM)
IC50 (L6): 18.1 µg/mL
